Assay results reported in patent US9694016B2 (Novartis AG, priority 2013, dated 2017).
Like-named read-outs stand apart in the source and are kept apart here.

Target: b-Raf (V600E) (Homo sapiens (Human), UniProt P15056, V600E)
Conditions: read-out: b-Raf IC-50, AlphaScreen
[1] = 60 min pre-incubation, 3 hours reaction
[2] = 60 min pre-incubation, reaction 3 hours at room temperature

Chain of b-Raf (V600E) (P15056 whole entry V600E): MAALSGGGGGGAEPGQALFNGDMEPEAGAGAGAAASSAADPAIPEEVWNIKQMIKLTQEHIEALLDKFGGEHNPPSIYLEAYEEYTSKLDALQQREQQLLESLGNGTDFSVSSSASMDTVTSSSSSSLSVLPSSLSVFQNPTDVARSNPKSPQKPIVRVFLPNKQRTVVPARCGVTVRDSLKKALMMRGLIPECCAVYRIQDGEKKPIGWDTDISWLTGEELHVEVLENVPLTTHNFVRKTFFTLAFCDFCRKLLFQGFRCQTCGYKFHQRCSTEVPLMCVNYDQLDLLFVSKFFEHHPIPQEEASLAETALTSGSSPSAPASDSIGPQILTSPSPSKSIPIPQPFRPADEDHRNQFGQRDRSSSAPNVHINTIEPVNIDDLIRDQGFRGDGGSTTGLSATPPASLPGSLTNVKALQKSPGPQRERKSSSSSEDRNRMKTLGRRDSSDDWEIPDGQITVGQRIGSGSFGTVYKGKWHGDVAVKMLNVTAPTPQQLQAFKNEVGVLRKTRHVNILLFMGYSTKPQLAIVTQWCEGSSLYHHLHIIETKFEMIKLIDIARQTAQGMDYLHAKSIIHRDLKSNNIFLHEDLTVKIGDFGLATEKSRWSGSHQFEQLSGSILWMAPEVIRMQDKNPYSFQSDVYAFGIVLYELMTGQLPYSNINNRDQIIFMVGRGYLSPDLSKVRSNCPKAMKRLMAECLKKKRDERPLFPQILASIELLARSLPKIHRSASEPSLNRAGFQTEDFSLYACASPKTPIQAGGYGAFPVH

Compound: Cc1ccc(NC(=O)c2ccnc(C(F)(F)F)c2)cc1-c1cc(N2CCOCC2)c(=O)n(C)n1 [Example 658, N-(4-methyl-3-(1-methyl-5-morpholino-6-oxo-1,6-dihydropyridazin-3-yl)phenyl)-2-(trifluoromethyl)isonicotinamide]
- IC50 [1]: 3.1 nM

Compound: CCOc1nnc(-c2cc(NC(=O)c3cccc(C(F)(F)F)c3)cnc2C)cc1N1CCOC[C@@H]1C [Example 571, (S)—N-(5-(6-ethoxy-5-(3-methylmorpholino)pyridazin-3-yl)-6-methylpyridin-3-yl)-3-(trifluoromethyl)benzamide]
- IC50 [1]: 2.5 nM

Compound: CCOc1nnc(-c2cc(NC(=O)c3cnnc(C(F)(F)F)c3)ccc2C)cc1N1CCOCC1 [Example 570, N-(3-(6-ethoxy-5-morpholinopyridazin-3-yl)-4-methylphenyl)-6-(trifluoromethyl)pyridazine-4-carboxamide]
- IC50 [1]: 0.8 nM

Compound: Cc1ncc(NC(=O)c2ccnc(C(C)(C)F)c2)cc1-c1cc(NCCO)nc(N2CCOCC2)c1 [Example 1056, 2-(2-fluoropropan-2-yl)-N-(2′-((2-hydroxyethyl)amino)-2-methyl-6′-morpholino-[3,4′-bipyridin]-5-yl)isonicotinamide]
- IC50 [2]: 11.2 nM

Compound: Cc1ncc(NC(=O)c2cccc(C(F)(F)F)c2)cc1-c1cc(N2CCOCC2)nc(NC[C@H](C)O)n1 [Example 740, (S)—N-(5-(2-((2-hydroxypropyl)amino)-6-morpholinopyrimidin-4-yl)-6-methylpyridin-3-yl)-3-(trifluoromethyl)benzamide]
- IC50 [1]: 2.1 nM

Compound: CCn1cc(-c2cc(NC(=O)c3ccnc(C(C)(C)C#N)c3)ccc2C)cc(N2CCOCC2)c1=O [Example 160, 2-(2-cyanopropan-2-yl)-N-(3-(1-ethyl-5-morpholino-6-oxo-1,6-dihydropyridin-3-yl)-4-methylphenyl)isonicotinamide]
- IC50 (Table 2, 3 hours reaction): 10.6 nM

Compound: Cc1ncc(NC(=O)c2ccnc(C(F)(F)F)c2)cc1-c1cc(NCCO)nc(N2CCOCC2)c1 [Example 1040, N-(2′-((2-hydroxyethyl)amino)-2-methyl-6′-morpholino-[3,4′-bipyridin]-5-yl)-2-(trifluoromethyl)isonicotinamide]
- IC50 [2]: 4.35 nM

Compound: Cc1ccc(NC(=O)c2cccc(C(F)(F)F)c2)cc1-c1nc2c(c(N3CCOCC3)n1)CNCC2 [Example 835, N-(4-methyl-3-(4-morpholino-5,6,7,8-tetrahydropyrido[4,3-d]pyrimidin-2-yl)phenyl)-3-(trifluoromethyl)benzamide]
- IC50 [1]: 2.1 nM

Compound: CCC(F)(F)c1cc(C(=O)Nc2ccc(C)c(-c3cc(N4CCOCC4)c(OCCO)nn3)c2)ccn1 [Example 589, 2-(1,1-difluoropropyl)-N-(3-(6-(2-hydroxyethoxy)-5-morpholinopyridazin-3-yl)-4-methylphenyl)isonicotinamide]
- IC50 [1]: 1.5 nM

Compound: Cn1cc(-c2cc(NC(=O)c3ccnc(C(C)(F)F)c3)ccc2F)cc(N2CCOCC2)c1=O [Example 419]
- IC50 (Table 2, 3 hours reaction): 4.3 nM

Compound: Cc1ccc(NC(=O)c2ccnc(C(C)C)c2)cc1-c1cc(N2CCOCC2)c(=O)n(C)c1 [Example 348, 2-isopropyl-N-(4-methyl-3-(1-methyl-5-morpholino-6-oxo-1,6-dihydropyridin-3-yl)phenyl)isonicotinamide]
- IC50 (Table 2, 3 hours reaction): 2.7 nM

Compound: CCNc1nc(-c2cc(NC(=O)c3ccnc(C4COC4)c3)ccc2C)cc(N2CCOCC2)n1 [Example 707, N-(3-(2-(ethylamino)-6-morpholinopyrimidin-4-yl)-4-methylphenyl)-2-(oxetan-3-yl)isonicotinamide]
- IC50 [1]: 1.9 nM

Compound: CCNc1nc(-c2cc(NC(=O)c3cccc(C(C)(F)F)c3)ccc2C)cc(N2CCOCC2)n1 [Example 701, 3-(1,1-difluoroethyl)-N-(3-(2-(ethylamino)-6-morpholinopyrimidin-4-yl)-4-methylphenyl)benzamide]
- IC50 [1]: 1.3 nM

Compound: Cc1ncc(NC(=O)c2cccc(C(F)F)c2)cc1-c1cc(N2CCOCC2)nc(N2CC(O)C2)c1 [Example 1079, 3-(difluoromethyl)-N-(2′-(3-hydroxyazetidin-1-yl)-2-methyl-6′-morpholino-[3,4′-bipyridin]-5-yl)benzamide]
- IC50 [2]: 4.64 nM

Compound: Cc1ccc(NC(=O)c2cncc(C(F)(F)F)c2)cc1-c1cc(N2CCOCC2)n(C)c(=O)c1 [Example 901, N-(4-methyl-3-(1-methyl-6-morpholino-2-oxo-1,2-dihydropyridin-4-yl)phenyl)-5-(trifluoromethyl)nicotinamide]
- IC50 [2]: 0.85 nM

Compound: Cc1ncc(NC(=O)c2cnnc(C3(C#N)CC3)c2)cc1-c1cnc(OC2CCOCC2)c(N2CCOCC2)c1 [Example 944, 6-(1-cyanocyclopropyl)-N-(2-methyl-5′-morpholino-6′-((tetrahydro-2H-pyran-4-yl)oxy)-[3,3′-bipyridin]-5-yl)pyridazine-4-carboxamide]
- IC50 [2]: 3.89 nM

Compound: CCC(F)(F)c1cc(C(=O)Nc2ccc(C)c(-c3cc(N4CCOCC4)c(S(C)(=O)=O)nn3)c2)ccn1 [Example 926, 2-(1,1-difluoropropyl)-N-(4-methyl-3-(6-(methylsulfonyl)-5-morpholinopyridazin-3-yl)phenyl)isonicotinamide]
- IC50 [2]: 2.13 nM

Compound: CCNc1nc(-c2cc(NC(=O)c3cnnc(C(C)(C)C#N)c3)ccc2C)cc(N2CCOCC2)n1 [Example 709, 6-(2-cyanopropan-2-yl)-N-(3-(2-(ethylamino)-6-morpholinopyrimidin-4-yl)-4-methylphenyl)pyridazine-4-carboxamide]
- IC50 [1]: 3.4 nM

Compound: CCOc1nnc(-c2cc(NC(=O)c3ccnc(C(C)(C)C#N)c3)ccc2C)cc1N1CCOCC1 [Example 573, 2-(2-cyanopropan-2-yl)-N-(3-(6-ethoxy-5-morpholinopyridazin-3-yl)-4-methylphenyl)isonicotinamide]
- IC50 [1]: 0.8 nM

Compound: CCOc1ncc(-c2cc(NC(=O)c3ccnc(C(C)(C)O)c3)cnc2C)cc1N1CCOCC1 [Example 240, N-(6′-ethoxy-2-methyl-5′-morpholino-[3,3′-bipyridin]-5-yl)-2-(2-hydroxypropan-2-yl)isonicotinamide]
- IC50 (Table 2, 3 hours reaction): 15.3 nM

Compound: Cc1ncc(NC(=O)c2cccc(C(F)(F)F)c2)cc1-c1cc(N2CCOCC2)nc(N2CC(O)C2)n1 [Example 768, N-(5-(2-(3-hydroxyazetidin-1-yl)-6-morpholinopyrimidin-4-yl)-6-methylpyridin-3-yl)-3-(trifluoromethyl)benzamide]
- IC50 [1]: 11.1 nM

Compound: Cc1ccc(NC(=O)c2cncc(C(F)(F)F)c2)cc1-c1cnc(OC(C)C)c(N2CCOCC2)c1 [Example 951, N-(3-(6-isopropoxy-5-morpholinopyridin-3-yl)-4-methylphenyl)-5-(trifluoromethyl)nicotinamide]
- IC50 [2]: 0.31 nM

Compound: Cc1ccc(NC(=O)c2ccnc(C(C)C)c2)cc1-c1cc(N2CCOCC2)nc(OC2CNC2)n1 [Example 778, N-(3-(2-(azetidin-3-yloxy)-6-morpholinopyrimidin-4-yl)-4-methylphenyl)-2-isopropylisonicotinamide]
- IC50 [1]: 2.3 nM

Compound: Cc1ncc(NC(=O)c2cc(C(F)(F)F)ccn2)cc1-c1cnc(OCCO)c(N2CCOCC2)c1 [Example 301, N-(6′-(2-hydroxyethoxy)-2-methyl-5′-morpholino-[3,3′-bipyridin]-5-yl)-4-(trifluoromethyl)picolinamide]
- IC50 (Table 2, 3 hours reaction): 3.2 nM

Compound: Cc1ccc(NC(=O)c2ccnc(C(C)(C)F)c2)cc1-c1cc(N2CCOCC2)c(S(C)(=O)=O)nn1 [Example 928, 2-(2-fluoropropan-2-yl)-N-(4-methyl-3-(6-(methylsulfonyl)-5-morpholinopyridazin-3-yl)phenyl)isonicotinamide]
- IC50 [2]: 1.9 nM

Compound: Cc1ncc(NC(=O)c2cccc(C(F)(F)F)c2)cc1-c1cc(N2CCOCC2)c(S(C)(=O)=O)nn1 [Example 919, N-(6-methyl-5-(6-(methylsulfonyl)-5-morpholinopyridazin-3-yl)pyridin-3-yl)-3-(trifluoromethyl)benzamide]
- IC50 [2]: 4.11 nM

Compound: Cc1ncc(NC(=O)c2cccc(C(F)(F)F)c2)cc1-c1cc(N2CCOCC2)c(=O)n(C)c1 [Example 138, N-(1′,2-dimethyl-5′-morpholino-6′-oxo-1′,6′-dihydro-[3,3′-bipyridin]-5-yl)-3-(trifluoromethyl)benzamide]
- IC50 (Table 2, 3 hours reaction): 4.7 nM

Compound: Cc1ncc(NC(=O)c2ccnc(S(C)(=O)=O)c2)cc1-c1cc(N2CCOCC2)nc(N2CCOCC2)c1 [Example 1124, N-(2-methyl-2′,6′-dimorpholino-[3,4′-bipyridin]-5-yl)-2-(methylsulfonyl)isonicotinamide]
- IC50 [2]: 12.1 nM

Compound: CCOc1nnc(-c2cc(NC(=O)c3ccnc(C(C)(C)C#N)c3)ccc2C)cc1N1CCOC[C@H]1C [Example 624, (R)-2-(2-cyanopropan-2-yl)-N-(3-(6-ethoxy-5-(3-methylmorpholino)pyridazin-3-yl)-4-methylphenyl)isonicotinamide]
- IC50 [1]: 4.7 nM

Compound: Cc1ccc(NC(=O)c2ccnc(C(C)(F)F)c2)cc1-c1cnc(OCCO)c(N2CCOCC2)c1 [Example 1000, 2-(1,1-difluoroethyl)-N-(3-(6-(2-hydroxyethoxy)-5-morpholinopyridin-3-yl)-4-methylphenyl)isonicotinamide]
- IC50 [2]: 2.15 nM

Compound: Cc1ccc(NC(=O)c2cccc(C(F)(F)F)c2)cc1-c1cc(N2CC3CC(C2)O3)c(=O)n(C)c1 [Example 464, N-(3-(5-(6-oxa-3-azabicyclo[3.1.1]heptan-3-yl)-1-methyl-6-oxo-1,6-dihydropyridin-3-yl)-4-methylphenyl)-3-(trifluoromethyl)benzamide]
- IC50 [1]: 16.8 nM

Compound: Cc1ncc(NC(=O)c2ccnc(C(F)(F)F)c2)cc1-c1cnc(OC2CCOCC2)c(N2C3CCC2COC3)c1 [Example 278, N-(5′-(3-oxa-8-azabicyclo[3.2.1]octan-8-yl)-2-methyl-6′-((tetrahydro-2H-pyran-4-yl)oxy)-[3,3′-bipyridin]-5-yl)-2-(trifluoromethyl)isonicotinamide]
- IC50 (Table 2, 3 hours reaction): 8.4 nM

Compound: Cc1ccc(NC(=O)c2ccnc(C(C)(C)C#N)c2)cc1-c1cc(C2CCOCC2)c(=O)n(C)n1 [Example 675, 2-(2-cyanopropan-2-yl)-N-(4-methyl-3-(1-methyl-6-oxo-5-(tetrahydro-2H-pyran-4-yl)-1,6-dihydropyridazin-3-yl)phenyl)isonicotinamide]
- IC50 [1]: 4.9 nM
